Laboratory results reported in article PMC5556071, “ATR inhibition facilitates targeting of leukemia dependence on convergent nucleotide biosynthetic pathways” (Nature Communications, 2017).
Several values for one entry are separate records, joined by “and”; a condition that tells them apart may be missing. Equal entries are not always repeated.

Experiments:
Assay type in all cases: cell-based, human
[1] = test system: CEM cells; assay: Proliferation assay (CellTiter-Glo, 72 h)
Experimental: Cells were plated in 384-well plates (1000 cells/well for suspension cell lines and 500 cells/well for adherent cell lines in 30 µl volume). Drugs were serially diluted to the desired concentrations and an equivalent volume of DMSO was added to vehicle control. Ten microliter of the 4× diluted drugs were added to each well. Following 72 h incubation, ATP content was measured using CellTiter-Glo reagent according to manufacturer’s instructions (Promega, CellTiter-Glo Luminescent Cell Viability Assay), and analyzed by SpectraMax luminometer (Molecular Devices). IC50 values, concentrations required to inhibit proliferation by 50% compared to DMSO treated cells, were calculated using Prism 6.0 h (Graphpad Software).

[2] = test system: asynchronous CEM cells; assay: Quantitative global proteomics (nLC-MS/MS), asynchronous cells
Experimental: To investigate the molecular mechanisms underlying the metabolic consequences of ATR and dCK inhibition, global changes in protein expression were assessed in CEM cells using quantitative nano-LC tandem MS (nLC-MS/MS) (Fig. 2a). Chemical isotope coding following reductive dimethylation of peptide N-termini and lysine primary amines with differential stable isotopes (light:medium:heavy) was used to compare expression of experimental (VE-822, dCKi and VE-822 + dCKi) samples to controls (untreated, NT) by mixing equal proportions for triplex nLC-MS/MS quantitative analyses. The data set was filtered for proteins identified in all treatment groups in three independent experiments with coefficients of variation <20%. This yielded 1757 proteins with relative fold changes in treated vs. untreated cells ranging from 0.45 to 1.83. […] Protein levels of both RNR subunits, RRM1 and RRM2, as well as thymidylate synthase decreased by more than 20% following ATR inhibition (Fig. 2c). Changes in the expression of de novo enzymes observed in synchronous cells also occurred with ATR inhibition in asynchronous CEM cells (Fig. 2d and Supplementary Data 3), thereby arguing against the possibility of experimental artifacts introduced by Palbociclib-mediated cell cycle synchronization. The reduction in RRM2 levels induced by ATR inhibition was accompanied by an ~ 50% decrease in the phosphorylation of RRM2 on threonine 33 (pT33) (Fig. 2e), a phosphosite previously linked to the RRM2 stability. […]
Proteomic analyzes. CCRF-CEM cells were treated ± with a CDK4/6 inhibitor, PD-0332991 (Selleckchem) for 18 h to arrest at G1 phase. Cells were then washed twice with PBS and released in fresh media with treatment at a density of 1 x 10^6 cells/mL. Cells were collected at 12 h, washed twice with ice-cold PBS, and lysed by trituration using 1 mL per 5 x 10^7 cells of 0.5% sodium deoxycholate, 12 mM sodium lauryl sarcosine, and 50 mM triethylammonium bicarbonate, pH 8.0. Lysates were heated at 95 °C for 5 min and water bath sonicated at room temperature (RT) for 5 min. Bicinchoninic acid protein assay (Pierce) was performed to determine protein concentration. Disulfide bridges were reduced with 5 mM tris(2-carboxyethyl)phosphine (final concentration) at RT for 30 min with subsequent treatment with 10 mM iodoacetamide (final concentration) at RT in the dark for 30 min. Solutions were diluted 1:5 (v:v) with 50 mM triethylammonium bicarbonate. Proteins were cleaved with sequencing grade trypsin (Promega) at 1:100 (enzyme:protein) for 4 h at 37 °C followed by a second aliquot of trypsin 1:100 (enzyme:protein) overnight at 37 °C. Samples were acidified with 0.5% trifluoroacetic acid (final concentration), vortexed rapidly for 5 min, and centrifuged (16,000 x g for 5 min, RT) to pellet sodium deoxycholate. Supernatants were transferred to new microcentrifuge tubes and 20 µg of total peptide were desalted using C18 StageTips as previously described2. On-column dimethyl labeling using C18 StageTips was performed as previously described3. Briefly, StageTips were equilibrated with 20 μL of 250 mM 2-(N-morpholino)ethanesulfonic acid (MES) pH 5.5. Tryptic peptides were dimethyl labeled using 60 mM sodium cyanoborohydride, 0.4% formaldehyde, and 250 mM MES pH 5.5 for 10 min. Dimethyl labeled peptides were eluted from StageTips using 20 μL of 80% acetonitrile with 0.1% trifluoroacetic acid and lyophilized to dryness. […]

[3] = test system: dCK pS74; assay: Phosphoproteomic nLC-MS/MS analysis of dCK phosphorylation; parameters: key to dCK pS74: ↓: partial decrease/inhibition; ↓↓↓: nearly complete inhibition; ↑: increase; ⟷: no change
Experimental: against both the Uniprot human FASTA database and a decoy database of the Uniprot human database which read from C-terminus to N-terminus; Percolator was used to filter the data at 1% FDR at both the peptide and […]
Phosphoproteomic analyses. CCRF-CEM cells were prepared same as the asynchronous CEM cells total protein digests above, except that a total of 7.5 mg total protein from 1 x 10^8 cells was collected per treatment condition for phosphoproteomic analysis. tC18 Sep-Pak cartridges (Waters) were used for peptide desalting and Pierce Quantitative Colorimetric Peptide Assay was performed prior to phosphopeptide enrichment.
Hydrophilic interaction chromatography (HILIC) and immobilized metal affinity chromatography (IMAC) were performed same as previously described4. Data dependent nLC-MS/MS was performed on Thermo QExactive Plus same as above. […] Identified phosphopeptides were manually quantified by area-based extracted ion chromatograms of the monoisotopic peak. […]

[4] = 1 µM VE-822, 12 h, analyses #1-#3

Structure (SMILES) | IC50 [1] [µM] | Protein expression level normalized to control (NT): Apoptosis regulatory protein Siva (SIVA1) [2, 4] | Protein expression level normalized to control (NT): Aspartate--tRNA ligase, cytoplasmic (DARS) [2, 4] | Protein expression level normalized to control (NT): Eukaryotic translation initiation factor 2 subunit 3 (EIF2S3;EIF2S3L) [2, 4] | Protein expression level normalized to control (NT): GA-binding protein alpha chain (GABPA) [2, 4] | observed fold decrease in total RRM2 protein (proteomic nLC-MS/MS) ([2]; asynchronous CEM, VE-822 1 µM, 12 h) [fold] | decrease in dCK pS74 (fold) ([3]; VE-822-treated leukemia cells) | dCK pS74 ([3]; summary Fig. 2g, CEM cells)
NC(=S)N/N=C/c1ncccc1N [3-AP] | 1.06 | – | – | – | – | – | – | –
CNCc1ccc(-c2cc(-c3nc(-c4ccc(S(=O)(=O)C(C)C)cc4)cnc3N)on2)cc1 [VE-822] | – | 0.5843 and 0.5702 and 0.5605 | 0.9056 and 0.9095 | 0.9499 and 0.9479 and 0.9485 | 0.6147 and 0.6159 and 0.6369 | 0.77 | two-fold | ↓
